We go through 2 compounds from ChEMBL document CHEMBL6121046, “Discovery of Novel Hydrazide-Based HDAC3 Inhibitors as Epigenetic Immunomodulators for Cancer Immunotherapy” (J Med Chem, 2025).

In series [1] the test system is MC-38. The experiment in a line: In vivo antitumor activity against mouse MC38 cells allografted in C57BL/6 mouse assessed as decrease in […] positive cells in tumor at 50 mg/kg, po treated 5 days after cell inoculation 19 th day by immunofluorescence analysis. The series is classed as functional, organism-based. Particulars: time 15.0 day.
Series [2] has as its system Mus musculus. The experiment in a line: Immunomodulatory effect in C57BL/6 mouse allografted mouse MC38 cells assessed as increase in tumor infiltrating lymphocytes by measuring increase in […] in mouse spleen at 50 mg/kg, po treated 5 days after cell inoculation 19 th day by flow cytometry analysis (reference value: 13.6%). It counts as functional. Particulars: time 15 day. (In flow cytometry, cells or beads pass a laser one at a time.)

In series [3] the test system is Mus musculus. Put plainly: Immunomodulatory effect in C57BL/6 mouse allografted mouse MC38 cells assessed as increase in tumor infiltrating lymphocytes by measuring increase in CD4+ T helper cells in mouse blood at 50 mg/kg, po treated 5 days after cell inoculation 19 th day by flow cytometry analysis (reference value: 0.27%). The series is classed as functional. To be noted: time 15 day.

For series [4], the system named is MC-38. The experiment in a line: In vivo antitumor activity against mouse MC38 cells allografted in C57BL/6 mouse assessed as tumor growth inhibition at 50 mg/kg, po treated 5 days after cell inoculation 19 th day relative to control. The series is classed as functional. To be noted: MC-38, 360 h, time 15 day, read-out: TGI.
Series [5] concerns MC-38. The experiment in a line: In vivo antitumor activity against mouse MC38 cells allografted in C57BL/6 mouse assessed as increase in Tunel-positive cells in tumor at 50 mg/kg, po treated 5 days after cell inoculation 19 th day by immunofluorescence analysis. To be noted: time 15.0 day. It counts as functional, organism-based.
The test system of series [6] is Mus musculus. Put plainly: Immunomodulatory effect in C57BL/6 mouse allografted mouse MC38 cells assessed as increase in tumor infiltrating lymphocytes by measuring increase in […] in mouse lymph nodes at 50 mg/kg, po treated 5 days after cell inoculation 19 th day by flow cytometry analysis (reference value: 20.3%). The series is classed as functional. Particulars: time 15 day.

The subject of series [7] is Mus musculus. The experiment in a line: Immunomodulatory effect in C57BL/6 mouse allografted mouse MC38 cells assessed as increase in tumor infiltrating lymphocytes by measuring increase in CD8+ T […] cells in tumor at 50 mg/kg, po treated 5 days after cell inoculation 19 th day by flow cytometry analysis (reference value: 2.32%). The series is classed as functional. To be noted: time 15 day.

Series [8] in a line: Oral bioavailability in C57BL/6 mouse allografted with mouse MC38 cells at 50 mg/kg. Particulars: in vivo. It counts as ADME, organism-based.
Series [9] concerns Mus musculus. Put plainly: Induction of PD-L1 expression in tumor in C57BL/6 mouse allografted with mouse MC38 cells in presence of NP19 PD-L1 inhibitor at 50 mg/kg, po treated 5 days after cell inoculation 19 th day by immunofluorescence analysis. It counts as functional, organism-based. To be noted: time 15.0 day.
Series [10] deals with Mus musculus. The experiment in a line: Immunomodulatory effect in C57BL/6 mouse allografted with mouse MC38 cells assessed as increase in tumor infiltrating lymphocytes by measuring increase in CD3+ CD4+ cells at 50 mg/kg, po treated 5 days after cell inoculation 19 th day by flow cytometry analysis. The series is classed as functional, organism-based. Particulars: time 15.0 day.

Series [11] concerns Mus musculus. The experiment in a line: Immunomodulatory effect in C57BL/6 mouse allografted mouse MC38 cells assessed as increase in tumor infiltrating lymphocytes by measuring increase in […] in mouse blood at 50 mg/kg, po treated 5 days after cell inoculation 19 th day by flow cytometry analysis (reference value: 0.35%). It counts as functional. To be noted: time 15 day.

The subject of series [12] is Mus musculus. The experiment in a line: Immunomodulatory effect in C57BL/6 mouse allografted mouse MC38 cells assessed as increase in tumor infiltrating lymphocytes by measuring increase in CD4+ T helper cells in mouse lymph nodes at 50 mg/kg, po treated 5 days after cell inoculation 19 th day by flow cytometry analysis (reference value: 15.5%). To be noted: time 15 day. It counts as functional.

Series [13] deals with Mus musculus. The experiment in a line: Immunomodulatory effect in C57BL/6 mouse allografted mouse MC38 cells assessed as increase in tumor infiltrating lymphocytes by measuring increase in CD4+ T helper cells in tumor at 50 mg/kg, po treated 5 days after cell inoculation 19 th day by flow cytometry analysis (reference value: 2.57%). Particulars: time 15 day. It counts as functional.

Series [14] has as its system Mus musculus. The experiment in a line: Immunomodulatory effect in C57BL/6 mouse allografted mouse MC38 cells assessed as increase in tumor infiltrating lymphocytes by measuring increase in CD4+ T helper cells in mouse spleen at 50 mg/kg, po treated 5 days after cell inoculation 19 th day by flow cytometry analysis (reference value: 10.8%). Particulars: time 15 day. It counts as functional.

For series [15], the system named is B16-F10. The experiment in a line: Antiproliferative activity against mouse B16-F10 cells at 1 uM measured after 48 hrs incubation by MTT assay relative to control. A general note: Tetrazolium dyes change colour on reduction, which living cells bring about.
Series [16] deals with MC-38. The experiment in a line: Effect on acetylated SMC3 in mouse MC38 cells at 0.1 to 2 uM measured after 24 hrs incubation by Western blot analysis. It counts as functional, cell-based. To be noted: dose 0.1-2 µM. In general terms: In western blotting, separated proteins are transferred to a membrane and probed.
Series [17] has as its system B16-F10 (Mus musculus). The experiment in a line: Antiproliferative activity against mouse B16-F10 cells measured after 48 hrs incubation by MTT assay relative to control. To be noted: B16-F10, 48 h.
Series [18] deals with HeLa. The experiment in a line: Antiproliferative activity against human HeLa cells measured after 48 hrs incubation by MTT assay relative to control. The series is classed as functional, cell-based.
Series [19] relates to MC-38. Put plainly: Antiproliferative activity against mouse MC38 cells measured after 48 hrs incubation by MTT assay relative to control. It counts as functional, cell-based. To be noted: MC-38, 48 h.
In series [20] the test system is MC-38. Put plainly: Increase in acetylated H3 in mouse MC38 cells at 0.1 to 2 uM measured after 24 hrs incubation by Western blot analysis. The series is classed as functional, cell-based. To be noted: dose 0.1-2 µM.
Series [21] concerns MC-38. Put plainly: Effect on acetylated alpha-tubulin in mouse MC38 cells at 0.1 to 2 uM measured after 24 hrs incubation by Western blot analysis. It counts as functional, cell-based. To be noted: dose 0.1-2 µM.
Series [22] concerns MCF7. Put plainly: Antiproliferative activity against human MCF7 cells measured after 48 hrs incubation by MTT assay relative to control. The series is classed as functional, cell-based. To be noted: MCF7, 48 h.
A short description of series [23]: Antiproliferative activity against […] cells measured after 48 hrs incubation by MTT assay relative to control. The series is classed as functional, cell-based. Particulars: Mus musculus, Lung cancer cell line.
The subject of series [24] is HepG2. The experiment in a line: Antiproliferative activity against human HepG2 cells measured after 48 hrs incubation by MTT assay relative to control. It counts as functional, cell-based. Particulars: HepG2, 48 h.

pIC50: −log10 of the molar value. Activity calls are given as the source filed them. No cut-off for these calls is given here.

As usually defined, the bioavailability is dose-corrected exposure relative to a reference, in per cent. Turning to `Cc1c(COc2cc(OCc3cccc(C#N)c3)c(CNC(C)(C)C(=O)O)cc2Cl)cccc1-c1ccccc1`, the result in series [1], in series [9] and in [10] was inactive. The Activity in series [2] was 12.1%; in series [3], 0.38%; in series [6], 18.9%; in [7], 3.18%; in series [11], 0.42%; in series [12], 11.2%. Further, the Activity in series [13] came out at 2.69%; in [14] it was 10.2%. In series [4], the inhibition in vivo at 50 mg/kg came to 8%. In addition, the outcome in series [5] was Active. For the same compound, in [8], the bioavailability was under 5%.

A word on the pIC50: it is the IC50 on a negative log10 scale, so that one unit is a factor of ten. `Nc1ccccc1NC(=O)c1ccc(CNC(=O)OCc2cccnc2)cc1` [ENTINOSTAT] came in with an Activity in series [15] of 16.1%. Besides, the result in series [16] and in series [21] was inactive. In addition, the pIC50 in series [17] is 5.03; in series [18], under 5.00; in series [19], under 5.00; in series [22] it was 5.05; in series [23], 5.54; in [24], 5.39. Further, in [20], the outcome was Active.
